Test results as given in ChEMBL document CHEMBL2407063, “Synthesis and in vitro cellular uptake of 11C-labeled 5-aminolevulinic acid derivative to estimate the induced cellular accumulation of protoporphyrin IX” (Bioorg Med Chem Lett, 2013).

Assays:
[1] = tested on: ASPC1; test: Cellular uptake in human AsPC1 cells at 15 MBq after 10 mins by gamma counting in presence of aminolevulinic acid; type: ADME, cell-based; settings: aspc1, 10 min
[2] = Protein binding in mouse serum by ultrafiltration method; type: ADME, cell-free; settings: read-out: PB (converted)
[3] = target: T1, Delta-aminolevulinic acid dehydratase (Homo sapiens, UniProt P13716); test: Inhibition of ALAD (unknown origin)
T1 sequence (P13716 whole entry): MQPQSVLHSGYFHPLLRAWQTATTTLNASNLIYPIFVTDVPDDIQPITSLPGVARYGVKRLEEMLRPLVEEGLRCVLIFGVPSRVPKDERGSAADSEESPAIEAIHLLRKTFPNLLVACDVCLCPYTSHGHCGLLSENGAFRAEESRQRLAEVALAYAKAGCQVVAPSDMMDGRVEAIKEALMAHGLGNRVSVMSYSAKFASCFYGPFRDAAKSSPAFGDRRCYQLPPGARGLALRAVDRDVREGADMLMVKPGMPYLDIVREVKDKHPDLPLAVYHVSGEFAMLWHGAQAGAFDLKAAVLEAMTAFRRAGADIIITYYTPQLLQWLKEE

[4] = tested on: ASPC1; test: Cellular uptake in human AsPC1 cells at 15 MBq after 10 mins by gamma counting in presence of beta-transporter substrate GABA; type: ADME, cell-based; settings: aspc1, 10 min
[5] = tested on: ASPC1; test: Cellular uptake in human AsPC1 cells at 15 MBq after 10 mins by gamma counting in presence of PEPT1/2 substrate glycylsarcosine; type: ADME, cell-based; settings: aspc1, 10 min
[6] = […] in mouse serum after 60 mins by HPLC analysis; type: ADME, cell-free
[7] = tested on: ASPC1; test: Cellular uptake in human AsPC1 cells at 15 MBq by gamma counting; type: ADME, cell-based; settings: TDE = time-dependent effect

## [11CH3]C(N)C(=O)CCC(=O)O (racemic)
[1]
  Drug uptake: Not Active
[2]
  fraction unbound: 0.973
[3]
  Ki: 200 nM
[4]
  Drug uptake: Not Active
[5]
  Drug uptake: Not Active
[6]
  fraction unbound at 1 h: 0.974
[7]
  Drug uptake: tde
